According to patent US6376200B1, “Kainate-binding, human CNS receptors of the EAA4 family” (priority 1992, dated 2002):
Where two headings read alike, the source gives them in different places.

Tests used:
human EAA4a receptor [1] = molecular target: T1, human EAA4a receptor (Homo sapiens, UniProt Q13002); assay type: cell-based; design: transported to the cell surface in mature form, lacking the signal peptide and consisting of 877 amino acids; expressed in transfected cells; host or cells: Xenopus oocytes (stage V or VI), nuclear injection of pcDNAI/humEAA4a DNA; details: for oocyte response to agonist: tested at -60, -80 and -100 mV
T1 sequence (Q13002 32-908): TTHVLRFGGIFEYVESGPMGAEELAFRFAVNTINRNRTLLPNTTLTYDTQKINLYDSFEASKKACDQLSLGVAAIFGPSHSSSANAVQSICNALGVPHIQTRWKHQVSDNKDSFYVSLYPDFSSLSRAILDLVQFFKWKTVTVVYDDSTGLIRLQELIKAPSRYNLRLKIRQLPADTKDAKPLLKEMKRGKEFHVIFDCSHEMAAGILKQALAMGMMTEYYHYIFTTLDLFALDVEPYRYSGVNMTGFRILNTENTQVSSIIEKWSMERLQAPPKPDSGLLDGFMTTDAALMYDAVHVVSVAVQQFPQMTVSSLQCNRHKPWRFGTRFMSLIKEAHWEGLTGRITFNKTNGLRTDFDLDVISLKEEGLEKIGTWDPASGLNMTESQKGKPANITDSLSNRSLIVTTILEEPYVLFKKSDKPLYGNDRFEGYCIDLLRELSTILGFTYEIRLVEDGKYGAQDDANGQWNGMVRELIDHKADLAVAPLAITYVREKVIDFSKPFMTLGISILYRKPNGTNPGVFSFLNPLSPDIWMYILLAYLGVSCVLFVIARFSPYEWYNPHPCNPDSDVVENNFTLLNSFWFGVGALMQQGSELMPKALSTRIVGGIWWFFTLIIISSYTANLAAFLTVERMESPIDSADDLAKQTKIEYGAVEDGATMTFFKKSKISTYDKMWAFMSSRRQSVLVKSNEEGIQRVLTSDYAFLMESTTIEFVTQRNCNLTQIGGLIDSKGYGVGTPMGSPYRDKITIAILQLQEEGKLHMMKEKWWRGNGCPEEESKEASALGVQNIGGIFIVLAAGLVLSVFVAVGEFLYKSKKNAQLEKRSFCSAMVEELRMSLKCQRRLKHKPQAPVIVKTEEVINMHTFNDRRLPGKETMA
Procedure: Xenopus oocytes (stage V or VI) were harvested and the nucleus of the oocytes was injected with 5 ng of pcDNAI/humEAA4a DNA.

human EAA4a receptor [2] = molecular target: T1, human EAA4a receptor; details: COS cell membranes
Procedure: Transfected cells in the frozen state were resuspended in ice-cold distilled water using a hand homogenizer and centrifuged for 20 miutes at 50,000 g. The supernatant was discarded and the membrane pellet stored frozen at −70° C.
Proteins were determined using the Pierce Reagent with BSA as standard.
Binding assays were then performed, using an amount of COS-derived membrane equivalent to 25-100 ug as judged by protein determination and selected radiolabelled ligand. […] Samples were incubated on ice for 60 minutes, and bound and free ligand were then separated by rapid filtration using a PHD cell harvester and GF/B filters pre-soaked in ice-cold 0.3% polyethyleneimine. Filters were washed twice in 4 ml of the cold incubation buffer, then placed in scintillation vials with 5 ml of Beckman Ready-Protein Plus scintillation cocktail for counting.
Samples were incubated on ice for 60 minutes in plastic minivials, and bound and free ligand were separated by centrifugation for 30 minutes at 50,000 g. Pellets were washed twice in 4 ml of the cold incubation buffer, then 5 ml of Beckman Ready-Protein Plus scintillation cocktail was added, for counting.

| Compound | effect on the dose/response curve for L-glutamate (human EAA4a receptor [1]; DNQX 2×10^-6M, FIG. 10) | effect on the glutamate response (human EAA4a receptor [1]; oocytes, FIG. 8) | binding to EAA4a receptor (human EAA4a receptor [2]) | oocyte response to agonist (human EAA4a receptor [1]; 10^-4M) | oocyte response to agonist (human EAA4a receptor [1]; NMDA 10^-4M with glycine 10^-6M) |
| --- | --- | --- | --- | --- | --- |
| O=C1N=c2cc([N+](=O)[O-])c([N+](=O)[O-])cc2=NC1=O [DNQX, 6,7-dinitroquinoxaline-2,3-dione] | parallel shift of the dose/response curve for L-glutamate to the right | blocked the glutamate response | – | – | – |
| CN[C@H](CC(=O)O)C(=O)O [NMDA, N-methyl-D-aspartate] | – | – | little or no demonstrable binding | did not respond | did not respond |
